Earlier results in patent US20040082013A1, “Methods for screening for substances which inhibit fp prostanoid receptor interaction with a compound having pgf2alpha activity and methods of treating cancer” (priority 2003, published 2004).

Key:
[1] = test system: eyelashes and adjacent hair; conditions: some patients receiving latanoprost for glaucoma; treated eye, not untreated eye
skin carcinogenesis = conditions: animal models of skin carcinogenesis

Compound	hair growth side effect [1]	effect on anti-tumor promoting activity of indomethacin (skin carcinogenesis)	effect on tumor promoting activity of phorbol esters (skin carcinogenesis)
CC(C)OC(=O)CCC/C=C\C[C@@H]1[C@@H](CC[C@@H](O)CCc2ccccc2)[C@H](O)C[C@@H]1O [latanoprost]	hypertrichosis of the eyelashes and adjacent hair in the treated eye	–	–
prostaglandin F2α [PGF2α]	–	reversed the anti-tumor promoting activity of indomethacin	increased the tumor promoting activity of phorbol esters
